From US20250213523A1, “COMBINATION OF HDAC INHIBITORS AND STATINS FOR USE IN THE TREATMENT OF PANCREATIC CANCER” (ISTITUTO NAZIONALE TUMORI IRCCS - FONDAZIONE G. PASCALE, priority 2022, published 2025)

Columns and labels:
[1] = tested on: PANC1; assay: Cell proliferation assay (Sulforhodamine B), IC50; type: cell-based; details: Homo sapiens, PANC-1; PANC1, 96 hours of treatment; read-out: IC50 96 h mean ± SD
Protocol: (§1) Cell proliferation was measured in 96-well plates in cells untreated and treated with described drugs as single agent or in combination. […] Drugs combination studies were based on concentration-effect curves generated as a plot of the fraction of unaffected (surviving) cells versus drug concentration after 96 h of treatment. Synergism, additivity, and antagonism were quantified after an evaluation of the Combination Index (CI), which was calculated by the Chou-Talalay equation with CalcuSyn software (Biosoft, Cambridge, UK-Chou T C. Cancer Res. 2010 Jan. 15; 70(2):440-6.), as described elsewhere (Terranova-Barberio M, J Exp Clin Cancer Res. 2017; 36(1):177); Bruzzese et al, J Cell Physiol 2011, 226(9):2378-2390). […] The DRI determined the magnitude of dose reduction allowed for each drug when given in combination, compared with the concentration of a single agent that is needed to achieve the same effect. Clonogenic assay Colony formation assay is an in vitro cell survival assay based on the ability of a single cell to grow into a colony. The PANC1, ASPC1 and PANC28 cell lines were plated in 96 well plates with 50 cell/well while the BxPC3 cell line with 100 cell/well. The day after the cells were treated with VPA, SIM alone (at dose of IC10, IC25 and IC50) and in combination. The cells were grown for 10 days. The formed colonies were fixed with TCA (50%) and measured using a spectrophotometric dye incorporation assay (Sulforhodamine B or crystal violet). Microtissue formation assay Pancreatic cancer cell lines PANC1, ASPC1, PANC28, BxPC3 and MiaPaca were cultured as microtissues by the ultra-low attachment (ULA) System (PerkinElmer). The cancer cells were marked using a green fluorescent probe-cell traker (Thermo Fisher) while fibroblast (only for preliminary experiment to evaluate tissues formation) with red probe (PKH-26 Sigma Aldrich) according to manufacture instruction. […] 3D microtissues were maintained in the incubator and photographed by Opera Phenix microscope (Perkin Elmer) air objective magnification 5× and/or scored by Cell Titer-Glo® 3D Cell Viability Assay (Promega) by using a Multimode Reader Cytation 5 (Biotek).

[2] = tested on: ASPC1; assay: Cell proliferation assay (Sulforhodamine B), IC50; type: cell-based; details: Homo sapiens; ASPC1, 96 hours of treatment; read-out: IC50 96 h mean ± SD
Protocol: as §1

[3] = tested on: L3.6pl; assay: Cell proliferation assay (Sulforhodamine B), IC50; type: cell-based; details: Homo sapiens, 96 hours of treatment, read-out: IC50 96 h mean ± SD
Protocol: as §1, with “The day after the cells were treated with VPA, SIM alone (at dose of IC10, IC25 and IC50) and in combination.” left out

[4] = tested on: MDA-PANC28; assay: Cell proliferation assay (Sulforhodamine B), IC50; type: cell-based; details: Homo sapiens, MDA-Panc-28; MDA-PANC28, 96 hours of treatment; read-out: IC50 96 h mean ± SD
Protocol: as §1, with “The day after the cells were treated with VPA, SIM alone (at dose of IC10, IC25 and IC50) and in combination.” left out

[5] = tested on: COLO357; assay: Cell proliferation assay (Sulforhodamine B), IC50; type: cell-based; details: Homo sapiens; COLO357, 96 hours of treatment; read-out: IC50 96 h mean ± SD
Protocol: as §1, with “The day after the cells were treated with VPA, SIM alone (at dose of IC10, IC25 and IC50) and in combination.” left out

[6] = tested on: MIAPACA; assay: Cell proliferation assay (Sulforhodamine B), IC50; type: cell-based; details: Homo sapiens, MIA PaCa-2, 96 hours of treatment, read-out: IC50 96 h mean ± SD
Protocol: as §1, with “The day after the cells were treated with VPA, SIM alone (at dose of IC10, IC25 and IC50) and in combination.” left out

[7] = tested on: BxPC3; assay: Cell proliferation assay (Sulforhodamine B), IC50; type: cell-based; details: Homo sapiens, BXPC-3; BxPC3, 96 hours of treatment; read-out: IC50 96 h mean ± SD
Protocol: as §1, with “The day after the cells were treated with VPA, SIM alone (at dose of IC10, IC25 and IC50) and in combination.” left out

[8] = tested on: KPC ID11; assay: Cell proliferation assay (Sulforhodamine B), IC50; type: cell-based, C57/BL6 mice; details: Mus musculus; KPC ID11, 96 hours of treatment; read-out: IC50 96 h mean ± SD
Protocol: (§2) FIG. 1. Pancreatic Cancer Cell lines features. A. Basal mRNA basal levels of EMT markers Vimentin and E-Cadherin in PDAC cell lines L3.6pl, BxPC3, COLO357, PANC28, PANC1, ASPC1 and MIAPACA2, in normal pancreatic cells HPDE cells, as well as in 2 established PDX-derived primary cells KPC ID11 and KPC ID95 were determined by qRT-PCR. […] Cells were grown for 48 h before preparation of cell lysates. Proteins were separated by SDS-PAGE and transferred to PVDF membranes using standard protocols. The membranes were probed with specific antibodies and Ponceau Red as total protein loading controls. Data represents representative results of at least three independent experiments.
as §1, with “The day after the cells were treated with VPA, SIM alone (at dose of IC10, IC25 and IC50) and in combination.” left out

[9] = tested on: KPC ID95; assay: Cell proliferation assay (Sulforhodamine B), IC50; type: cell-based, C57/BL6 mice; details: Mus musculus; KPC ID95, 96 hours of treatment; read-out: IC50 96 h mean ± SD
Protocol: as §2
as §1, with “The day after the cells were treated with VPA, SIM alone (at dose of IC10, IC25 and IC50) and in combination.” left out

[10] = tested on: PANC1, ASPC1, PANC28 and BxPC3 cells; assay: Colony formation (clonogenic) assay; type: cell-based, human; details: high (IC25) and low (IC10) doses; all cell lines
Protocol: FIG. 3. VPA plus SIMVASTATIN antiproliferative and pro-apoptotic effects in PDAC cell lines. A. Synergistic inhibition of colony formation by the VPA/SIM in ASPC1, PANC28, PANC1 and BxPC3 cell lines. […] Upper panel: representative imagines of one experiment; in the lower panel: the bar graphs represent the values of absorbance of colonies after SRB colorimetric assay. Statistical significance was determined by a 2 tailed, unpaired Student's T test (*P<0.05;** P<0.01). B.-C. Synergistic inhibition of microtissues formation by the VPA and SIM alone and in combination. […] The graphics represent the number of viable cells in 3D cell culture based on quantitation of the ATP content. […] Statistical significance was determined by a 2 tailed, unpaired Student's T test (*P<0.05;** P<0.01) (C). […] Antiproliferative effect was assessed in all PDAC cell lines by sulforhodamine B colorimetric assay (see Methods) and expressed as percentage of control. B Apoptosis was evaluated by Caspase 3/7 activity assay, in PANC1, PANC28 and ASPC1 cells untreated or treated for 24 h with VPA/SIM and/or GEM/TAX at the low doses (VPA 0.5 mM, SIM 0,625 μM, GEM 25 nM and TAX 1.25 nM) and evaluated by luminescence assay. […] Expression of cleaved PARP in PANC1, PANC28 and ASPC1 cell lines untreated or treated with VPA/SIM and/or GEM/TAX for 24 h was evaluated by western blotting. βActin was used as loading control. […]

IC50 [1] [µM]	IC50 [2] [µM]	IC50 [4] [µM]	IC50 [5] [µM]	IC50 [6] [µM]	IC50 [7] [µM]	Compound	IC50 [3] [µM]	IC50 [8] [µM]	IC50 [9] [µM]	colonies formation [10]
14.4 ± 0.56	4.55 ± 0.07	3.25 ± 0.35	12 ± 2.2	1.8 ± 0.06	16.9 ± 4.3	CC(C)c1c(C(=O)Nc2ccccc2)c(-c2ccccc2)c(-c2ccc(F)cc2)n1CC[C@@H](O)C[C@@H](O)CC(=O)O [ATOR, Atorvastatin]	11 ± 3.2	–	–	–
28.2 ± 5.9	8.83 ± 2.4	4.05 ± 0.55	8 ± 0.5	3 ± 0.4	18.7 ± 6.95	CC[C@H](C)C(=O)O[C@H]1C[C@@H](C)C=C2C=C[C@H](C)[C@H](CC[C@@H]3C[C@@H](O)CC(=O)O3)[C@H]21 [LOV, Lovastatin]	12.1 ± 0.33	–	–	–
2.65 ± 0.07	2.2 ± 0.14	2.1 ± 0.14	> 8	0.02	0.9 ± 0.05	Nc1ccccc1NC(=O)c1ccc(CNC(=O)OCc2cccnc2)cc1 [MS-275]	> 8	> 8	> 8	–
0.0137 ± 0.00275	0.0156 ± 0.00177	0.0224 ± 0.00056	0.065 ± 0.00703	0.016 ± 0.0014	0.0243 ± 0.00503	Cc1[nH]c2ccccc2c1CCNCc1ccc(/C=C/C(=O)NO)cc1 [PAN, 2-(E)-N-hydroxy-3-[4 [[[2-(2-methyl-1H-indol-3-yl)ethyl]amino]methyl]phenyl]-2-propenamide]	> 0.16	> 0.16	> 0.16	–
9.2 ± 0.9	1.5 ± 0.28	1.3 ± 0.07	6 ± 0.5	2 ± 0.21	11.2 ± 2.59	CCC(C)(C)C(=O)O[C@H]1C[C@@H](C)C=C2C=C[C@H](C)[C@H](CC[C@@H]3C[C@@H](O)CC(=O)O3)[C@H]21 [SIM, Simvastatin]	5.1 ± 0.8	2.3 ± 0.48	1.05 ± 0.06	–
0.82 ± 0.1	0.74 ± 0.04	–	–	–	–	O=C(CCCCCCC(=O)Nc1ccccc1)NO [VOR, Vorinostat]	–	–	–	–
4500 ± 70	3500 ± 70	2800 ± 560	1000 ± 100	750 ± 50	1820 ± 190	CCCC(CCC)C(=O)O [VPA, 2-propylpentanoic acid]	2200 ± 120	1800 ± 40	1600 ± 380	inhibited colonies formation
